Data published in PMC5951806, “Rapid labelling and covalent inhibition of intracellular native proteins using ligand-directed N-acyl-N-alkyl sulfonamide” (Nature Communications, 2018).

Columns and labels:
Assay in all cases: TMT LC-MSMS of 11-labelled proteins
Assay type in all cases: cell-based
[1] = target: Desmoplakin (DSP) (Homo sapiens, UniProt P15924)
From the text: (§1) The labelled proteins were enriched by immunoprecipitation with an anti-fluorescein antibody and tryptically digested in gel. Digested peptides were modified with Light- (L-), Medium- (M-), or Heavy- (H-) TMT reagent for samples treated with 11, 11 with PU-H71 (as competitive condition), or DMSO (vehicle), respectively, and mixed in a 1:1:1 ratio for LC-MSMS analysis. We performed three experimental replicates, in which proteins detected and quantified at least twice were selected as identified proteins. According to the related approach of Cravatt et al[44], the proteins having L/H (11/DMSO) ratios >5 were defined as 11-labelled proteins. […] On the basis of these criteria, we identified 6 proteins that react with 11, including three ligand-specific targets (Hsp90α (HSP90AA1), Hsp90β (HSP90AB1), and Grp94 (HSP90B1)) and three off-targets (Trifunctional enzyme subunit α (HADHA), Tubulin-α (TUBA1B), and ADP/ATP translocase 3 (SLC25A6)) (Fig. 5d, e and Supplementary Data 1). […] Grp94, a HSP90 isomer, was previously reported to be a PU-H71 specific target. TRAP-1, another Hsp90 isomer that can bind PU-H71, on the other hand, was not identified as 11-target by our criteria.
(§2) SKBR3 human breast cancer cells (2.0 × 10^6 cells) were seeded on a 10 cm dish and cultured for 3 days in McCoy’s 5A in a 5% CO2 humidified chamber at 37 °C. […] As competitive experiments, the labelling was conducted in the presence of PU-H71 (10 µM). After labelling, the cells were washed twice with PBS, and lysed with RIPA buffer. […] The supernatant was mixed with chilled acetone and incubated overnight at −80 °C. The protein precipitates were solubilized by sonication in 1 mL of RIPA buffer containing 1% SDS, and then 10-fold diluted with RIPA buffer to reduce SDS concentration to c.a. 0.1%. The protein solution (containing 1 mg of protein) was mixed with Protein G Sepharose 4 Fast Flow (GE Healthcare) and rotated at 4 °C for 1 h. After removal of the beads, the remaining supernatant was mixed with anti-fluorescein antibody (Abcam, ab19491, 7:10000) and rotated at 4 °C for 1 h, followed by addition of fresh Protein G Sepharose 4 Fast Flow and further incubation at 4 °C for 4 h. The beads were washed five times with RIPA buffer and once with PBS. Proteins were eluted from the beads by addition of 2 × sample buffer containing 100 mM DTT and boiling at 95 °C for 5 min. The samples were subjected to a 7.5% SDS–PAGE gel (Mini-PROTEAN TGX Gels, BioRad), and electrophoresed as the migration distance of dye front is about 10 mm. Each lane was excised (height, 10 mm), and treated with a 47.5% methanol / 47.5% pure water / 5% acetic acid for 20 min, a 50% methanol / 50% pure water for 10 min, and in pure water for 10 min. The gel pieces were dehydrated with 100% acetonitrile, and then swelled with 200 μL of 100 mM TEAB (triethylamine bicarbonate) buffer containing 10 mM DTT and heated at 56 °C for 30 min. The solutions were replaced with 200 µL of 100 mM TEAB buffer containing 55 mM iodoacetamide and incubated for 45 min in the dark. The gel pieces were washed with 100 mM TEAB buffer and dehydrated in acetonitrile. This step was repeated once. The gels were reswelled in 100 mM TEAB buffer containing 10 ng/μL Sequencing Grade Trypsin (Promega) and incubated overnight at 37 °C. To the gels, 50 μL of an extraction solution (50% acetonitrile, 0.1% TFA) was added. After 10 min incubation, the supernatants were collected to new tubes, and this process was repeated twice. Extracted peptides were dried in vacuo and reconstituted with 25 μL of 100 mM TEAB buffer.

[2] = target: T1, Isoform 2 of Calcium-binding mitochondrial carrier protein Aralar2 (SLC25A13) (Homo sapiens, UniProt Q9UJS0)
T1 sequence (Q9UJS0 2-676 isoform Q9UJS0-2): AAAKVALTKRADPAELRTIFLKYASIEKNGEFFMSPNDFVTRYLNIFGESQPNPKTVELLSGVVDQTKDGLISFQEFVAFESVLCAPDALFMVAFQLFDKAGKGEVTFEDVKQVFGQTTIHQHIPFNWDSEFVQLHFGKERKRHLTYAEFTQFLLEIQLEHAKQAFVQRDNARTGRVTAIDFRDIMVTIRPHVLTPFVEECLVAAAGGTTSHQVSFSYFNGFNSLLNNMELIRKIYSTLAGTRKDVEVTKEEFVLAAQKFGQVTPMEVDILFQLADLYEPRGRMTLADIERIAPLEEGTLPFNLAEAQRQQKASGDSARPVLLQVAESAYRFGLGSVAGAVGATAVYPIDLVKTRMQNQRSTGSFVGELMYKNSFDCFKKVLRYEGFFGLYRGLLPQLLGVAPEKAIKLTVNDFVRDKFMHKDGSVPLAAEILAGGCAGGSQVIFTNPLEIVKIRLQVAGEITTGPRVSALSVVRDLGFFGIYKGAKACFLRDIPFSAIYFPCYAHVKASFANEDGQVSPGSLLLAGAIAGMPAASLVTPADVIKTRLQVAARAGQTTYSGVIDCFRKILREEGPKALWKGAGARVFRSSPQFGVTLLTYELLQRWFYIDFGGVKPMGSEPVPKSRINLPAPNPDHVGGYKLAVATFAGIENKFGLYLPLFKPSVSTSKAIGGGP
From the text: as §1, §2

[3] = target: Transferrin receptor protein 1 (TFRC) (Homo sapiens, UniProt P02786)
Sequence of Transferrin receptor protein 1 (TFRC) (P02786 whole entry): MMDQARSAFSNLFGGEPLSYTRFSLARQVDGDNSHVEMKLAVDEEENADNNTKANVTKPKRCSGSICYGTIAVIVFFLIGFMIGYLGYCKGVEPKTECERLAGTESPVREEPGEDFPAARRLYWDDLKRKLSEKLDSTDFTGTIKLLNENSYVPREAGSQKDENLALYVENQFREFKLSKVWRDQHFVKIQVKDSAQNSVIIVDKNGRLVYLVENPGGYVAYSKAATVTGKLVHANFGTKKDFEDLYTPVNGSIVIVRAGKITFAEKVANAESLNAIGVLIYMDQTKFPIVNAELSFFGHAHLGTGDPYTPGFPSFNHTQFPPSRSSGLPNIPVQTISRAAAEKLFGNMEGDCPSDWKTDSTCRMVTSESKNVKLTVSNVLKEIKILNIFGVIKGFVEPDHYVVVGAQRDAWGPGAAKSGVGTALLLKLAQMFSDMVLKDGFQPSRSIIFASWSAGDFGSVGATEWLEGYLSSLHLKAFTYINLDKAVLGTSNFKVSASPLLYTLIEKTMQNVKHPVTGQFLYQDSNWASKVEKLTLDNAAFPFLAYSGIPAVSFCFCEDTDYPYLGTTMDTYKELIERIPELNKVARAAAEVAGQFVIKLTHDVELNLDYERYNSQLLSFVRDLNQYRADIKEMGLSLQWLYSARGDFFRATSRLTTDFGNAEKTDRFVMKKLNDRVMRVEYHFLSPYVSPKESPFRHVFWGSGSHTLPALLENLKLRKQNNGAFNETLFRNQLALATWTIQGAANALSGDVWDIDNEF
From the text: as §1, §2

[4] = target: tubulin beta chain (TUBB) (Homo sapiens, UniProt P07437)
Sequence of tubulin beta chain (TUBB) (P07437 whole entry): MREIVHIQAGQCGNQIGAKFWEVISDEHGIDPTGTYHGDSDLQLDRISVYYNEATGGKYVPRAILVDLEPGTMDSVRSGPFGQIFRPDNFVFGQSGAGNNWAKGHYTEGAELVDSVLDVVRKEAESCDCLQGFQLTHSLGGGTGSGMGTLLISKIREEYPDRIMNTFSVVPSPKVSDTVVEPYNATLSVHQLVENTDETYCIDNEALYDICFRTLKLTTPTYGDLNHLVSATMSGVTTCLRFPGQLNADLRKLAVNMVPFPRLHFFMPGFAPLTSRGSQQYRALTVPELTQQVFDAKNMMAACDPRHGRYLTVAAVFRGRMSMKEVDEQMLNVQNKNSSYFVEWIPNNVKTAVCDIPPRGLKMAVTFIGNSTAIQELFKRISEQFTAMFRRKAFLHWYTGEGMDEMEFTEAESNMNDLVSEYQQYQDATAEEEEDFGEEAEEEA
Sequence of tubulin beta chain (TUBB) (P68363 whole entry partner): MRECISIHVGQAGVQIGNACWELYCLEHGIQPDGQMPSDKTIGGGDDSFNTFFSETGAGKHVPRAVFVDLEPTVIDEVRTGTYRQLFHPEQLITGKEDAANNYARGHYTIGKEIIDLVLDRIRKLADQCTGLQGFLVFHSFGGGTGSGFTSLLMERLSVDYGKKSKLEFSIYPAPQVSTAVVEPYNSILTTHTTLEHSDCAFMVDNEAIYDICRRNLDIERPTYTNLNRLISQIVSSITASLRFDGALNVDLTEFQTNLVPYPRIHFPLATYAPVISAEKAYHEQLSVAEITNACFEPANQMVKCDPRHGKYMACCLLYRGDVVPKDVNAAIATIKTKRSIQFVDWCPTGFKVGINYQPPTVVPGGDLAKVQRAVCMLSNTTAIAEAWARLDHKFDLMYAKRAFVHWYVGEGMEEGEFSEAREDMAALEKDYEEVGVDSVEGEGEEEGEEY
From the text: as §1, §2

[5] = sheet Merged, SKBR3 cells, 11 0.5 µM 3 h vs DMSO
[6] = sheet Merged, SKBR3 cells, 11 0.5 µM 3 h vs with PU-H71 10 µM
[7] = sheet Exp1, SKBR3 cells, 11 0.5 µM 3 h vs DMSO
[8] = sheet Exp1, SKBR3 cells, 11 0.5 µM 3 h vs with PU-H71 10 µM

Sequence of Desmoplakin (DSP) (P15924 whole entry): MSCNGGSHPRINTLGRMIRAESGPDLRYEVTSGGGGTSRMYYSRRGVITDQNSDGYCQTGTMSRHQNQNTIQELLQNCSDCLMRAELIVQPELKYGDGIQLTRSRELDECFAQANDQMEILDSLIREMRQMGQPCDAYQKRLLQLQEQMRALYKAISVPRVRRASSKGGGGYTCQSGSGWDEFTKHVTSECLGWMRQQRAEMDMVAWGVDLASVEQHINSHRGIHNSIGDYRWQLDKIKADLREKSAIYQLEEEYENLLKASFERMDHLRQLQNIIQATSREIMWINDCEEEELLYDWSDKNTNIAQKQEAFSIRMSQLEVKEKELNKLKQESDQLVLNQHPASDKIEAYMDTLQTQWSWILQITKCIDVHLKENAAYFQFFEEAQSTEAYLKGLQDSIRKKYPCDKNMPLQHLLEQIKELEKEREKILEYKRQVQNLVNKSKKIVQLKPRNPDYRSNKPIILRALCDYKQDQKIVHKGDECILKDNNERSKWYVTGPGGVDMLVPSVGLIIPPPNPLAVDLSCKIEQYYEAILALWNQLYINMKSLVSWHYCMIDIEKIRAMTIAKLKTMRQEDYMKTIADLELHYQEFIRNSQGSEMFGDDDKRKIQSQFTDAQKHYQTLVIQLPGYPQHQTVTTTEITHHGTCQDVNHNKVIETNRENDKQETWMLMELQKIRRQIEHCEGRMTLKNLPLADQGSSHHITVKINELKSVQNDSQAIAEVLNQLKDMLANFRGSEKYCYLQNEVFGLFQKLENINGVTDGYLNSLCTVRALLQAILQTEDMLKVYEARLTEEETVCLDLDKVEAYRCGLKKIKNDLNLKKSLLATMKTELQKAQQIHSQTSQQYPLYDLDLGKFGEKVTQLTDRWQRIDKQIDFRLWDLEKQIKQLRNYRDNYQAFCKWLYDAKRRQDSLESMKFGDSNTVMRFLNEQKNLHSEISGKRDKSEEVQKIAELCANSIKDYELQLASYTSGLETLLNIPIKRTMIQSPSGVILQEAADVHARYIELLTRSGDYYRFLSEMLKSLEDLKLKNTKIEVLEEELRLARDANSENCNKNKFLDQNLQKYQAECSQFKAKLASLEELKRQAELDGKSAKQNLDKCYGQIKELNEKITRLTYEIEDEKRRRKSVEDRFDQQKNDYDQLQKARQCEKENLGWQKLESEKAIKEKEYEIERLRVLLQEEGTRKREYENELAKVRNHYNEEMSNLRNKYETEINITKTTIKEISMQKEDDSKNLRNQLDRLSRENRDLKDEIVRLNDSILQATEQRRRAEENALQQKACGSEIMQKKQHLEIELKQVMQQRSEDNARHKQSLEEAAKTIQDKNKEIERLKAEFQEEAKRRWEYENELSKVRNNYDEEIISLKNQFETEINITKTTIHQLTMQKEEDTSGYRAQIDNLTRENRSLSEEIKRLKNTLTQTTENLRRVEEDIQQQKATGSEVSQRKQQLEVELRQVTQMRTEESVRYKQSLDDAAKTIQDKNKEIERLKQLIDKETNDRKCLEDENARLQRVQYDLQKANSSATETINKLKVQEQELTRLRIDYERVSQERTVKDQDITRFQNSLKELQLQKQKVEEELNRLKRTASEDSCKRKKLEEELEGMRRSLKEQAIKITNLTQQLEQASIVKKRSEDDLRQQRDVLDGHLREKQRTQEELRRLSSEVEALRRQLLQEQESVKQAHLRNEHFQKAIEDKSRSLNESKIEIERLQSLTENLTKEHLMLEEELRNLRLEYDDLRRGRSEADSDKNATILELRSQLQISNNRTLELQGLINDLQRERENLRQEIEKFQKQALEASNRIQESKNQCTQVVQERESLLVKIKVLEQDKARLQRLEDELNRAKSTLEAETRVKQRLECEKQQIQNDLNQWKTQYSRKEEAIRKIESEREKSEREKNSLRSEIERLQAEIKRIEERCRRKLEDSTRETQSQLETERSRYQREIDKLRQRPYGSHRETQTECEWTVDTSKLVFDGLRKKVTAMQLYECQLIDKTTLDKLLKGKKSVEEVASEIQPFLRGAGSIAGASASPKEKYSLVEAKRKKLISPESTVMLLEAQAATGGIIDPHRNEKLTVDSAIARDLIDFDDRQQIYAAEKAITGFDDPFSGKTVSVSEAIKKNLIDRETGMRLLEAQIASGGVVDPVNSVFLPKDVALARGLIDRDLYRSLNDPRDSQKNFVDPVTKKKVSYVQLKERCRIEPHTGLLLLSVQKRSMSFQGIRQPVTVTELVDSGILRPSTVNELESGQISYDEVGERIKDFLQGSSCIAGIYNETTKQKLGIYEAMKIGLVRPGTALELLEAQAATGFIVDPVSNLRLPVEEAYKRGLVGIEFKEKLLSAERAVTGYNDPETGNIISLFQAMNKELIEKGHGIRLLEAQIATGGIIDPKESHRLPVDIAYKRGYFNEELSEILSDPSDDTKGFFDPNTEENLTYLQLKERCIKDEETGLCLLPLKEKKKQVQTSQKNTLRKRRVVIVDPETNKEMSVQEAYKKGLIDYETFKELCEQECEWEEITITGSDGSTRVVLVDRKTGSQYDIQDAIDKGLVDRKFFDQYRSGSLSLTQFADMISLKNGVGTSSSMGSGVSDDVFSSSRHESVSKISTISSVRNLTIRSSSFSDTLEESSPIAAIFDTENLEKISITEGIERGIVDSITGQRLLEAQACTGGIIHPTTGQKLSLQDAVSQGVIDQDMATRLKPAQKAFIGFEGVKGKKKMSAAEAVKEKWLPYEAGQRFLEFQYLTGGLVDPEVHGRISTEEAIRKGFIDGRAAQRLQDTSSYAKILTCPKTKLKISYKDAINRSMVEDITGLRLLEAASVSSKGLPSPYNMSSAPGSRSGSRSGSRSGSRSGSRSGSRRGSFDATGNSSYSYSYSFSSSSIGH

## CC(=O)Oc1ccc2c(c1)Oc1cc(OC(C)=O)ccc1C21OC(=O)c2cc(C(=O)NCCOCCOCCNC(=O)CCCC(=O)N(CC#N)S(=O)(=O)c3ccc(C(=O)NCCCn4c(Sc5cc6c(cc5I)OCO6)nc5c(N)ncnc54)cc3)ccc21 [compound 11]
[1]; Exp3, DSP
  Abundance Ratio: (11) / (11 with PU-H71): 0.922
  Abundance Ratio: (11) / (DMSO): 1.358
  Abundances (Grouped): 11: 44.8
  Abundances (Grouped): 11 with PU-H71: 48.6
[1]; sheet Exp2, DSP
  Abundance Ratio: (11) / (11 with PU-H71): 1.054
  Abundance Ratio: (11) / (DMSO): 1.067
  Abundances (Grouped): 11: 43.1
  Abundances (Grouped): 11 with PU-H71: 40.9
[1]; [5]
  Abundance Ratio: (11) / (DMSO): 1.203
[1]; [6]
  Abundance Ratio: (11) / (11 with PU-H71): 0.986
[2]; sheet Exp2, SLC25A13
  Abundance Ratio: (11) / (11 with PU-H71): 0.894
  Abundance Ratio: (11) / (DMSO): 2.324
  Abundances (Grouped): 11: 24.4
[2]; sheet Exp2, SLC25A13, with PU-H71
  Abundances (Grouped): 11 with PU-H71: 27.3
[2]; [5]
  Abundance Ratio: (11) / (DMSO): 2.324
[2]; [6]
  Abundance Ratio: (11) / (11 with PU-H71): 0.894
[3]; [7]
  Abundance Ratio: (11) / (DMSO): 1.5
[3]; [8]
  Abundance Ratio: (11) / (11 with PU-H71): 0.917
[3]; sheet Exp2, TFRC
  Abundance Ratio: (11) / (11 with PU-H71): 1.036
  Abundance Ratio: (11) / (DMSO): 2.96
  Abundances (Grouped): 11: 95.6
[3]; sheet Exp2, TFRC, with PU-H71
  Abundances (Grouped): 11 with PU-H71: 92.3
[3]; [5]
  Abundance Ratio: (11) / (DMSO): 2.107
[3]; [6]
  Abundance Ratio: (11) / (11 with PU-H71): 0.975
[4]; Exp3, TUBB
  Abundance Ratio: (11) / (11 with PU-H71): 0.804
  Abundance Ratio: (11) / (DMSO): 4.633
  Abundances (Grouped): 11: 127.4
  Abundances (Grouped): 11 with PU-H71: 158.4
[4]; [7]
  Abundance Ratio: (11) / (DMSO): 3.833
[4]; [8]
  Abundance Ratio: (11) / (11 with PU-H71): 0.775
[4]; sheet Exp2, TUBB
  Abundance Ratio: (11) / (11 with PU-H71): 0.757
  Abundance Ratio: (11) / (DMSO): 3.139
  Abundances (Grouped): 11: 115.5
  Abundances (Grouped): 11 with PU-H71: 152.6
[4]; [5]
  Abundance Ratio: (11) / (DMSO): 3.599
[4]; [6]
  Abundance Ratio: (11) / (11 with PU-H71): 0.804
